Key:
Assay in all cases: relative viability (nuclei count vs DMSO), 5 days (fraction); higher = more cells survive
Seliciclib + Pemetrexed = compound: CC[C@H](CO)Nc1nc(NCc2ccccc2)c2ncn(C(C)C)c2n1 [Seliciclib] + Nc1nc2[nH]cc(CCc3ccc(C(=O)N[C@@H](CCC(=O)O)C(=O)O)cc3)c2c(=O)[nH]1 [Pemetrexed] (partner 0.2 µM)
In short: (§1)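 Dosing by pin tool came one day after lung cancer cell lines were seeded in 1536-well plates, using either one drug or a fixed anchor-drug dose plus five library-drug doses (not always all listed) in √10 steps. After 5 days, nuclei were counted on 4× images. Relative viability is treated-well nuclei count divided by vehicle-well nuclei count, and values are medians of duplicate plates.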

Seliciclib + Vorinostat = compound: CC[C@H](CO)Nc1nc(NCc2ccccc2)c2ncn(C(C)C)c2n1 [Seliciclib] + O=C(CCCCCCC(=O)Nc1ccccc1)NO [Vorinostat] (partner 1 µM)
In short: as §1

Seliciclib + Olaparib = compound: CC[C@H](CO)Nc1nc(NCc2ccccc2)c2ncn(C(C)C)c2n1 [Seliciclib] + O=C(c1cc(Cc2n[nH]c(=O)c3ccccc23)ccc1F)N1CCN(C(=O)C2CC2)CC1 [Olaparib] (partner 8 µM)
In short: as §1

Seliciclib + Linsitinib = compound: CC[C@H](CO)Nc1nc(NCc2ccccc2)c2ncn(C(C)C)c2n1 [Seliciclib] + C[C@]1(O)C[C@@H](c2nc(-c3ccc4ccc(-c5ccccc5)nc4c3)c3c(N)nccn32)C1 [Linsitinib] (partner 1 µM)
In short: as §1

Cell Line | relative viability (Seliciclib + Pemetrexed; first compound 0.08 µM) | relative viability (Seliciclib + Pemetrexed; first compound 0.253 µM) | relative viability (Seliciclib + Pemetrexed; first compound 0.8 µM) | relative viability (Seliciclib + Pemetrexed; first compound 2.53 µM) | relative viability (Seliciclib + Pemetrexed; first compound 8 µM) | relative viability (Seliciclib + Vorinostat; first compound 0.08 µM) | relative viability (Seliciclib + Vorinostat; first compound 0.253 µM) | relative viability (Seliciclib + Vorinostat; first compound 0.8 µM) | relative viability (Seliciclib + Vorinostat; first compound 2.53 µM) | relative viability (Seliciclib + Vorinostat; first compound 8 µM) | relative viability (Seliciclib + Olaparib; first compound 0.08 µM) | relative viability (Seliciclib + Olaparib; first compound 0.253 µM) | relative viability (Seliciclib + Olaparib; first compound 0.8 µM) | relative viability (Seliciclib + Olaparib; first compound 2.53 µM) | relative viability (Seliciclib + Olaparib; first compound 8 µM) | relative viability (Seliciclib + Linsitinib; first compound 0.08 µM) | relative viability (Seliciclib + Linsitinib; first compound 0.253 µM) | relative viability (Seliciclib + Linsitinib; first compound 0.8 µM) | relative viability (Seliciclib + Linsitinib; first compound 2.53 µM) | relative viability (Seliciclib + Linsitinib; first compound 8 µM)
NCI-H1755 | 0.385 | 0.386 | 0.431 | 0.419 | 0.467 | 0.654 | 0.748 | 0.696 | 0.692 | 0.637 | 0.882 | 0.914 | 0.873 | 0.885 | 0.846 | 0.982 | 1.02 | 0.978 | 1.02 | 0.993
NCI-H1793 | 0.842 | 0.741 | 0.77 | 0.857 | 0.912 | 0.707 | 0.718 | 0.59 | 0.716 | 0.439 | 0.942 | 0.655 | 0.834 | 1.09 | 0.761 | 0.784 | 0.545 | 0.79 | 1.16 | 0.743
NCI-H1915 | 0.483 | 0.483 | 0.492 | 0.604 | 0.514 | 0.499 | 0.532 | 0.611 | 0.492 | 0.421 | 0.27 | 0.287 | 0.273 | 0.227 | 0.196 | 1.11 | 1.14 | 1.14 | 1.12 | 0.885
NCI-H1944 | 0.575 | 0.634 | 0.453 | 0.608 | 0.428 | 0.562 | 0.527 | 0.466 | 0.552 | 0.338 | 0.377 | 0.394 | 0.348 | 0.425 | 0.392 | 1.08 | 1.19 | 1.09 | 1.17 | 0.904
NCI-H1975 | 0.274 | 0.328 | 0.281 | 0.331 | 0.267 | 0.689 | 0.608 | 0.66 | 0.652 | 0.46 | 0.774 | 0.605 | 0.768 | 0.865 | 0.523 | 1.03 | 0.865 | 0.975 | 0.819 | 0.6
NCI-H1993 | 0.601 | 0.597 | 0.608 | 0.507 | 0.456 | 0.836 | 0.931 | 0.883 | 0.559 | 0.498 | 0.892 | 0.935 | 1.05 | 0.976 | 1.01 | 0.746 | 0.749 | 0.768 | 0.724 | 0.713
NCI-H2009 | 1.08 | 1.17 | 1.03 | 0.981 | 1.02 | 0.742 | 0.862 | 0.753 | 0.687 | 0.671 | 0.734 | 0.576 | 0.724 | 0.64 | 0.706 | 1.24 | 1.16 | 1.09 | 1.19 | 1.19
NCI-H2023 | 0.261 | 0.276 | 0.229 | 0.181 | 0.222 | 0.641 | 0.736 | 0.649 | 0.5 | 0.43 | 0.517 | 0.472 | 0.449 | 0.536 | 0.366 | 0.642 | 0.574 | 0.633 | 0.746 | 0.572
NCI-H2085 | 0.979 | 1.01 | 0.856 | 0.935 | 0.727 | 0.763 | 0.762 | 0.756 | 0.74 | 0.556 | 0.734 | 0.845 | 0.73 | 0.738 | 0.63 | 0.808 | 0.805 | 0.928 | 0.856 | 0.763
NCI-H2087 | 0.635 | 0.591 | 0.673 | 0.652 | 0.639 | 0.802 | 0.677 | 0.686 | 0.725 | 0.314 | 0.597 | 0.616 | 0.38 | 0.577 | 0.514 | 0.896 | 0.991 | 1 | 0.867 | 0.862
NCI-H2126 | 0.631 | 0.683 | 0.682 | 0.515 | 0.542 | 0.806 | 0.783 | 0.579 | 0.375 | 0.611 | 0.886 | 0.953 | 0.888 | 0.908 | 0.745 | 0.718 | 0.711 | 0.698 | 0.721 | 0.716
NCI-H2228 | 0.325 | 0.326 | 0.337 | 0.34 | 0.344 | 0.585 | 0.521 | 0.58 | 0.586 | 0.335 | 0.905 | 0.649 | 0.741 | 0.577 | 0.654 | 0.848 | 0.491 | 0.612 | 0.564 | 0.57
NCI-H2347 | 0.409 | 0.454 | 0.419 | 0.437 | 0.42 | 0.595 | 0.656 | 0.443 | 0.566 | 0.432 | 0.557 | 0.604 | 0.518 | 0.579 | 0.557 | 1.05 | 0.995 | 0.849 | 1 | 0.922
NCI-H2405 | 1.05 | 1.23 | 1.07 | 0.825 | 0.83 | 1.06 | 1.2 | 0.98 | 0.742 | 0.739 | 0.88 | 0.939 | 0.934 | 0.739 | 0.724 | 0.978 | 0.962 | 0.863 | 0.941 | 0.793
NCI-H3122 | 0.207 | 0.211 | 0.177 | 0.205 | 0.228 | 0.925 | 0.979 | 0.759 | 1.09 | 0.86 | 0.632 | 0.589 | 0.62 | 0.697 | 0.615 | 0.966 | 1.03 | 0.987 | 1.05 | 0.94
PC-3 [JPC-3] | 1.11 | 1.17 | 1.08 | 0.995 | 0.968 | 0.796 | 0.957 | 0.876 | 0.601 | 0.633 | 1.05 | 1.25 | 1.06 | 1.1 | 0.978 | 0.954 | 0.994 | 1 | 0.915 | 0.893
